Data: ChEMBL document CHEMBL3885861, “Open TG-GATES”

Species: Rattus norvegicus
Test: Open TG-GATES - Regimen: Daily Repeat
Format: toxicity, organism-based, Sprague-Dawley
Set-up: regimen Daily Repeat, gender Male, age 6 weeks
Conditions: in vivo, po, 200 mg/kg, route gavage, dose level Middle; for APTT / Bas / Eos / Fbg / Hb / Ht / Lym / MCH / MCHC / MCV / Mono / Neu / PT / Plat / RBC / Ret / WBC: tissue Blood; for KIDNEY_L / KIDNEY_R / KIDNEY_TOTAL: tissue Kidney; for LIVER: tissue Liver; for A/G / ALP / ALT / AST / BUN / CRE / Ca / Cl / DBIL / GLC / IP / K / LDH / Na / PL / RALB / TBIL / TC / TG / TP / gamma-GTP: tissue Plasma

## C[C@](N)(Cc1ccc(O)c(O)c1)C(=O)O [METHYLDOPA]
72 h, time 3 day
  TERMINAL_BW: 196.2 g
  APTT: 15.9 s
  Bas: 0%
  Eos: 0.8%
  Fbg: 292.8 mg/dL
  Hb: 13.8 g/dL
  Ht: 40.6%
  Lym: 79.4%
  MCH: 22.1 pg
  MCHC: 34%
  MCV: 65 fL
  Mono: 2.6%
  Neu: 16.4%
  PT: 12.7 s
  Plat: 107.2 x10_4/uL
  RBC: 626 x10_4/ul
  Ret: 7.2%
  WBC: 59.1 x10_2/uL
  KIDNEY_L: 0.9 g
  KIDNEY_R: 0.9 g
  KIDNEY_TOTAL: 1.9 g
  LIVER: 8.5 g
  A/G: 0.9
  ALP: 1722.4 IU/L
  ALT: 53.4 IU/L
  AST: 73 IU/L
  BUN: 16.6 mg/dL
  CRE: 0.2 mg/dL
  Ca: 11.2 mg/dL
  Cl: 105.8 meq/L
  DBIL: 0.008 mg/dL
  GLC: 174 mg/dL
  IP: 8.4 mg/dL
  K: 4.5 meq/L
  LDH: 71.4 IU/L
  Na: 145.8 meq/L
  PL: 144 mg/dL
  RALB: 2.7 g/dL
  TBIL: 0.062 mg/dL
  TC: 97 mg/dL
  TG: 34 mg/dL
  TP: 5.8 g/dL
  gamma-GTP: 1 IU/L
[…], time 7 day
  TERMINAL_BW: 218.2 g
  APTT: 17.4 s
  Bas: 0%
  Eos: 1%
  Fbg: 269.4 mg/dL
  Hb: 14.1 g/dL
  Ht: 40.6%
  Lym: 78.8%
  MCH: 21.5 pg
  MCHC: 34.7%
  MCV: 61.9 fL
  Mono: 3.6%
  Neu: 16.2%
  PT: 12.2 s
  Plat: 122.9 x10_4/uL
  RBC: 656.4 x10_4/ul
  Ret: 4.5%
  WBC: 71.2 x10_2/uL
  KIDNEY_L: 0.9 g
  KIDNEY_R: 0.9 g
  KIDNEY_TOTAL: 1.9 g
  LIVER: 8.8 g
  A/G: 0.9
  ALP: 1381.2 IU/L
  ALT: 45.4 IU/L
  AST: 67.8 IU/L
  BUN: 14.2 mg/dL
  CRE: 0.2 mg/dL
  Ca: 10.8 mg/dL
  Cl: 107.4 meq/L
  DBIL: 0.01 mg/dL
  GLC: 179.8 mg/dL
  IP: 7.7 mg/dL
  K: 4.3 meq/L
  LDH: 54.2 IU/L
  Na: 143.4 meq/L
  PL: 132.4 mg/dL
  RALB: 2.7 g/dL
  TBIL: 0.068 mg/dL
  TC: 84.2 mg/dL
  TG: 36.2 mg/dL
  TP: 5.7 g/dL
  gamma-GTP: 0.8 IU/L
[…], time 14 day
  TERMINAL_BW: 271 g
  APTT: 16.1 s
  Bas: 0%
  Eos: 1%
  Fbg: 278.2 mg/dL
  Hb: 13.8 g/dL
  Ht: 39.5%
  Lym: 80.6%
  MCH: 20.9 pg
  MCHC: 34.9%
  MCV: 59.9 fL
  Mono: 1.8%
  Neu: 16.2%
  PT: 14.2 s
  Plat: 111.8 x10_4/uL
  RBC: 659.4 x10_4/ul
  Ret: 4.9%
  WBC: 82.5 x10_2/uL
  KIDNEY_L: 1.1 g
  KIDNEY_R: 1 g
  KIDNEY_TOTAL: 2.1 g
  LIVER: 10.2 g
  A/G: 0.8
  ALP: 1316.6 IU/L
  ALT: 42.2 IU/L
  AST: 61.8 IU/L
  BUN: 12.6 mg/dL
  CRE: 0.2 mg/dL
  Ca: 11 mg/dL
  Cl: 105.2 meq/L
  DBIL: 0.002 mg/dL
  GLC: 182.2 mg/dL
  IP: 7.1 mg/dL
  K: 4.4 meq/L
  LDH: 58 IU/L
  Na: 141.6 meq/L
  PL: 137 mg/dL
  RALB: 2.6 g/dL
  TBIL: 0.054 mg/dL
  TC: 87.6 mg/dL
  TG: 35.2 mg/dL
  TP: 5.7 g/dL
  gamma-GTP: 0.8 IU/L
[…], time 28 day
  TERMINAL_BW: 346.4 g
  APTT: 17.8 s
  Bas: 0%
  Eos: 1.2%
  Fbg: 280 mg/dL
  Hb: 15.1 g/dL
  Ht: 43%
  Lym: 81.2%
  MCH: 19.8 pg
  MCHC: 35.1%
  MCV: 56.5 fL
  Mono: 1.4%
  Neu: 15.6%
  PT: 14 s
  Plat: 101.7 x10_4/uL
  RBC: 760.8 x10_4/ul
  Ret: 2.3%
  WBC: 76.9 x10_2/uL
  KIDNEY_L: 1.2 g
  KIDNEY_R: 1.2 g
  KIDNEY_TOTAL: 2.4 g
  LIVER: 12.9 g
  A/G: 0.8
  ALP: 1006.8 IU/L
  ALT: 39.8 IU/L
  AST: 55.4 IU/L
  BUN: 13.2 mg/dL
  CRE: 0.2 mg/dL
  Ca: 10.7 mg/dL
  Cl: 104.8 meq/L
  DBIL: 0.018 mg/dL
  GLC: 182.2 mg/dL
  IP: 6.4 mg/dL
  K: 4 meq/L
  LDH: 39.8 IU/L
  Na: 142.8 meq/L
  PL: 144.6 mg/dL
  RALB: 2.7 g/dL
  TBIL: 0.052 mg/dL
  TC: 89.2 mg/dL
  TG: 50.8 mg/dL
  TP: 6.1 g/dL
  gamma-GTP: 1.2 IU/L
